Target: T1, NAMPT (Homo sapiens, UniProt P43490)
T1 construct: purchased Abcam ab221819
Test: NAMPT Activity Assay (Abcam #ab221819)
Format: biochemical
Conditions: purified NAMPT, percent inhibition from OD450 nm; compound concentration not given
Method: The NAMPT Activity Assay (Abcam #ab221819) was performed following manufacturers two-step reaction protocol. Briefly, compounds were added to a clear 96-well plate using the HP D300e Digital Dispenser. Purified NAMPT was added to all wells except the No NAMPT controls. Reaction Mix #1 was added to each well and the plate was incubated at 30*C for 1 hr followed by the addition of Reaction Mix #2. Absorbance was measured at OD450 nm using a multimode plate reader. Readings were recorded for 5 minutes and percent inhibition was calculated using: (1-(OD450 nm compound/OD450nm no drug))*100.

T1 sequence (P43490 whole entry): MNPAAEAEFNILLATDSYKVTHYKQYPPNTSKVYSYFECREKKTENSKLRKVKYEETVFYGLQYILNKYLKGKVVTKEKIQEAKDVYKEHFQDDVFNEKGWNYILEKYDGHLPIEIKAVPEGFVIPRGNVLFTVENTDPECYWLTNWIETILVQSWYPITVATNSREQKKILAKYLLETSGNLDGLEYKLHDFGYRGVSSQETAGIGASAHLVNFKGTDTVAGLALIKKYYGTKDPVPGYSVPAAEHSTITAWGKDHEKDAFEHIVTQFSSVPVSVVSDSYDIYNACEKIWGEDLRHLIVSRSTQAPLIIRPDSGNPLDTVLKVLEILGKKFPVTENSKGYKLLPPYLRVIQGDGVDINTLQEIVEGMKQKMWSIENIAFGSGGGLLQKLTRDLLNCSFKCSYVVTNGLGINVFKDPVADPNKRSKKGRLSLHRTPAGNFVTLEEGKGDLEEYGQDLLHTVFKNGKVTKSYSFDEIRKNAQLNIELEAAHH

Row | NAMPT Inhibition Code* | Compound
1 | C (C = ≥66% inhibition) | CC(=O)N(CC(F)F)c1ccc(-c2ccc(NC(=O)/C=C/c3cccnc3)cn2)cc1Cl [I-T2293, (E)-N-[6-[4-[acetyl(2,2-difluoroethyl)amino]-3-chloro-phenyl]-3-pyridyl]-3-(3-pyridyl)prop-2-enamide]
2 | C (C = ≥66% inhibition) | CC(=O)N(CC(F)F)c1ccc(-c2ccc(NC(=O)Cc3cccnc3)cn2)cc1Cl [I-T2290, N-[6-[4-[acetyl(2,2-difluoroethyl)amino]-3-chloro-phenyl]-3-pyridyl]-2-(3-pyridyl) acetamide]
3 | A (*A = <33% inhibition) | CC(=O)N(CC1CC1)c1ccc(-c2ccc(C(=O)NCC3CCCC34CC4)cn2)cc1Cl (centres unmarked) [I-T2343, 6-[4-[acetyl(cyclopropylmethyl)amino]-3-chloro-phenyl]-N-(spiro[2.4]heptan-7-ylmethyl)pyridine-3-carboxamide]
4 | C (C = ≥66% inhibition) | CC(=O)N(CC1CC1)c1ccc(-c2ccc(C(=O)NCc3ccc(Br)nc3)cn2)cc1Cl [I-T2370, 6-[4-[acetyl(cyclopropylmethyl)amino]-3-chloro-phenyl]-N-[(6-bromo-3-pyridyl)methyl]pyridine-3-carboxamide]
5 | C (C = ≥66% inhibition) | CC(=O)N(CC1CC1)c1ccc(-c2ccc(C(=O)NCCCc3cc[nH]n3)cn2)cc1C#N [I-T2313, 6-[4-[acetyl(cyclopropylmethyl)amino]-3-cyano-phenyl]-N-[3-(1H-pyrazol-5-yl)propyl]pyridine-3-carboxamide]
6 | C (C = ≥66% inhibition) | CC(=O)N(CC1CC1)c1ccc(-c2ccc(C(=O)Nc3cnc4nccn4c3)cn2)cc1Cl [I-T2140, 6-[4-[Acetyl(cyclopropylmethyl)amino]-3-chloro-phenyl]-N-imidazo[1,2-a]pyrimidin-6-yl-pyridine-3-carboxamide]
7 | C (C = ≥66% inhibition) | COC(=O)c1cc(-c2ccc(C(=O)NCCCc3cc[nH]n3)cn2)ccc1N(CC1CC1)C(C)=O [I-T2299, Methyl 2-[acetyl(cyclopropylmethyl)amino]-5-[5-[3-(1H-pyrazol-3-yl)propylcarbamoyl]-2-pyridyl]benzoate]
8 | B (B = >33 to <66% inhibition) | CC(=O)N(CC1CC1)c1ccc(-c2ccc(C(=O)NCc3cccs3)cn2)cc1Cl [I-T2352, 6-[4-[acetyl(cyclopropylmethyl)amino]-3-chloro-phenyl]-N-(2-thienylmethyl)pyridine-3-carboxamide]
9 | C (C = ≥66% inhibition) | CC(=O)N(CC1CC1)c1ccc(-c2ccc(C(=O)NCCc3ccncc3)cn2)cc1Cl [I-T2308, 6-[4-[Acetyl(cyclopropylmethyl)amino]-3-chloro-phenyl]-N-[2-(4-pyridyl)ethyl]pyridine-3-carboxamide]
10 | A (*A = <33% inhibition) | CC(=O)N(CC1CC1)c1ccc(-c2ccc(C(=O)NC3Cc4ccc(Br)cc4C3)cn2)cc1Cl (centres unmarked) [I-T2153, 6-[4-[Acetyl(cyclopropylmethyl)amino]-3-chloro-phenyl]-N-(5-bromoindan-2-yl)pyridine-3-carboxamide]
11 | C (C = ≥66% inhibition) | COC(=O)c1cc(-c2ccc(C(=O)NCCCc3cn[nH]c3)cn2)ccc1N(CC1CC1)C(C)=O [I-T2298, Methyl 2-[acetyl(cyclopropylmethyl)amino]-5-[5-[3-(1H-pyrazol-4-yl)propylcarbamoyl]-2-pyridyl]benzoate]
12 | C (C = ≥66% inhibition) | COC(=O)c1cc(-c2ccc(C(=O)NCCc3cn[nH]c3)cn2)ccc1N(CC1CC1)C(C)=O [I-T2297, Methyl 2-[acetyl(cyclopropylmethyl)amino]-5-[5-[2-(1H-pyrazol-4-yl)ethylcarbamoyl]-2-pyridyl]benzoate]
13 | C (C = ≥66% inhibition) | CC(=O)N(CC1CC1)c1ccc(-c2ccc(C(=O)NCCc3cccnc3)cn2)cc1F [I-T2301, 6-[4-[acetyl(cyclopropylmethyl)amino]-3-fluoro-phenyl]-N-[2-(3-pyridyl)ethyl]pyridine-3-carboxamide]
14 | C (C = ≥66% inhibition) | CC(=O)N(CC1CC1)c1ccc(-c2ccc(NC(=O)Cc3ccc(Cl)nc3)cn2)cc1Cl [I-T2391, N-[6-[4-[acetyl(cyclopropylmethyl)amino]-3-chloro-phenyl]-3-pyridyl]-2-(6-chloro-3-pyridyl)acetamide]
15 | A (*A = <33% inhibition) | CC(=O)N(CC1CC1)c1ccc(-c2ccc(NC(=O)Cc3cccnc3Cl)cn2)cc1Cl [I-T2392, N-[6-[4-[acetyl(cyclopropylmethyl)amino]-3-chloro-phenyl]-3-pyridyl]-2-(2-chloro-3-pyridyl)acetamide]
16 | C (C = ≥66% inhibition) | CC(=O)N(CC(F)F)c1ccc(-c2ccc(C(=O)NCCCc3cc[nH]n3)cn2)cc1Cl [I-T2287, 6-[4-[Acetyl(2,2-difluoroethyl)amino]-3-chloro-phenyl]-N-[3-(1H-pyrazol-3-yl)propyl]pyridine-3-carboxamide]

Row | NAMPT Inhibition Code* | Compound
17 | C (C = ≥66% inhibition) | CC(=O)N(CC(F)F)c1ccc(-c2ccc(C(=O)NCCc3cccnc3)cn2)cc1Cl [I-T2205, 6-[4-[Acetyl(2,2-difluoroethyl)amino]-3-chloro-phenyl]-N-[2-(3-pyridyl)ethyl]pyridine-3-carboxamide]
18 | B (B = >33 to <66% inhibition) | CC(=O)N(CC1CC1)c1ccc(-c2ccc(C(=O)NCc3ccsc3)cn2)cc1Cl [I-T2149, 6-[4-[Acetyl(cyclopropylmethyl)amino]-3-chloro-phenyl]-N-(3-thienylmethyl)pyridine-3-carboxamide]
19 | A (*A = <33% inhibition) | CC(=O)N(CC1CC1)c1ccc(-c2ccc(C(=O)NCc3cncs3)cn2)cc1Cl [I-T2355, 6-[4-[acetyl(cyclopropylmethyl)amino]-3-chloro-phenyl]-N-(thiazol-5-ylmethyl)pyridine-3-carboxamide]
20 | A (*A = <33% inhibition) | CC(=O)N(CC1CC1)c1ccc(-c2ccc(C(=O)NCc3cscn3)cn2)cc1Cl [I-T2354, 6-[4-[acetyl(cyclopropylmethyl)amino]-3-chloro-phenyl]-N-(thiazol-4-ylmethyl)pyridine-3-carboxamide]
21 | A (*A = <33% inhibition) | CC(=O)N(CC1CC1)c1ccc(-c2ccc(C(=O)N3Cc4ccncc4C3)cn2)cc1Cl [I-T2138, N-[2-Chloro-4-[5-(1,3-dihydropyrrolo[3,4-c]pyridine-2-carbonyl)-2-pyridyl]phenyl]-N-(cyclopropylmethyl)acetamide]
22 | A (*A = <33% inhibition) | CC(=O)N(CC1CC1)c1ccc(-c2ccc(C(=O)NCc3cncnc3)cn2)cc1Cl [I-T2147, 6-[4-[Acetyl(cyclopropylmethyl)amino]-3-chloro-phenyl]-N-(pyrimidin-5-ylmethyl)pyridine-3-carboxamide]
23 | C (C = ≥66% inhibition) | CC(=O)N(CC1CC1)c1ccc(-c2ccc(C(=O)NCCCc3cn[nH]c3)cn2)cc1C#N [I-T2306, 6-[4-[acetyl(cyclopropylmethyl)amino]-3-cyano-phenyl]-N-[3-(1H-pyrazol-4-yl)propyl]pyridine-3-carboxamide]
24 | C (C = ≥66% inhibition) | CC(=O)N(CC1CC1)c1ccc(-c2ccc(NC(=O)/C=C/c3cccnc3)cn2)cc1Cl [I-T2124, (E)-N-[6-[4-[acetyl(cyclopropylmethyl)amino]-3-chloro-phenyl]-3-pyridyl]-3-(3-pyridyl)prop-2-enamide]
25 | C (C = ≥66% inhibition) | CC(=O)N(CC(F)F)c1ccc(-c2ccc(C(=O)Nc3cnc4nccn4c3)cn2)cc1Cl [I-T2201, 6-[4-[Acetyl(2,2-difluoroethyl)amino]-3-chloro-phenyl]-N-imidazo[1,2-a]pyrimidin-6yl-pyridine-3-carboxamide]
26 | A (*A = <33% inhibition) | CC(=O)N(CC1CC1)c1ccc(-c2ccc(NC(=O)CC3CCCCC3)cn2)cc1Cl [I-T2394, N-[6-[4-[acetyl(cyclopropylmethyl)amino]-3-chloro-phenyl]-3-pyridyl]-2-cyclohexyl-acetamide]
27 | C (C = ≥66% inhibition) | CC(=O)N(CC1CC1)c1ccc(-c2ccc(C(=O)NCc3ccc(C(F)F)nc3)cn2)cc1Cl [I-T2397, 6-[4-[acetyl(cyclopropylmethyl)amino]-3-chloro-phenyl]-N-[[6-(difluoromethyl)-3-pyridyl]methyl]pyridine-3-carboxamide]
28 | C (C = ≥66% inhibition) | CC(=O)N(CC1CC1)c1ccc(-c2ccc(C(=O)NCCCc3cc[nH]n3)cn2)cc1Cl [I-T2127, 6-[4-[Acetyl(cyclopropylmethyl)amino]-3-chloro-phenyl]-N-[3-(1H-pyrazol-3-yl)propyl]pyridine-3-carboxamide]
29 | C (C = ≥66% inhibition) | CC(=O)N(CC1CC1)c1ccc(-c2ccc(C(=O)NCCCc3cn[nH]c3)cn2)cc1Cl [I-T2269, 6-[4-[Acetyl(cyclopropylmethyl)amino]-3-chloro-phenyl]-N-[3-(1H-pyrazol-4-yl)propyl]pyridine-3-carboxamide]
30 | B (B = >33 to <66% inhibition) | CC(=O)N(CC1CC1)c1ccc(-c2ccc(C(=O)NCc3ccc[nH]3)cn2)cc1Cl [I-T2121, 6-[4-[Acetyl(cyclopropylmethyl)amino]-3-chloro-phenyl]-N-(1H-pyrrol-2-ylmethyl)pyridine-3-carboxamide]
31 | A (*A = <33% inhibition) | CC(=O)N(CC1CC1)c1ccc(-c2ccc(C(=O)NCc3nccs3)cn2)cc1Cl [I-T2356, 6-[4-[acetyl(cyclopropylmethyl)amino]-3-chloro-phenyl]-N-(thiazol-2-ylmethyl)pyridine-3-carboxamide]
32 | C (C = ≥66% inhibition) | CC(=O)N(CC1CC1)c1ccc(-c2ccc(NC(=O)CCc3cccnc3F)cn2)cc1Cl [I-T2369]

From patent US20240376074A1, “NAMPT INHIBITORS AND USES THEREOF” (Remedy Plan, Inc., priority 2021, published 2024)
